Assay results taken from PMC11674187, “Inhibitory Effects of Cenobamate on Multiple Human Cardiac Ion Channels and Possible Arrhythmogenic Consequences” (Biomolecules, 2024).
pIC50: −log10 of the molar value. Where “and” joins values, the source holds several entries; their conditions need not be identical. Equal values may be shown once. Read-outs that look alike come from different tables or passages of the source.

How the values were obtained:
[1] = test system: hNav1.7; set-up: method as in ref [5] p. 8; conditions: hNav1.7 in HEK293 cells, ref [5] p. 8, cited from earlier work
[2] = target: T1, hNav1.5 (Homo sapiens, UniProt Q14524); assay: Whole-cell patch-clamp on HEK293T cells, late INa (CiPA-like protocol with ATX-II); assay type: cell-based
T1 construct: host or cells: HEK293T
T1 sequence (Q14524 whole entry): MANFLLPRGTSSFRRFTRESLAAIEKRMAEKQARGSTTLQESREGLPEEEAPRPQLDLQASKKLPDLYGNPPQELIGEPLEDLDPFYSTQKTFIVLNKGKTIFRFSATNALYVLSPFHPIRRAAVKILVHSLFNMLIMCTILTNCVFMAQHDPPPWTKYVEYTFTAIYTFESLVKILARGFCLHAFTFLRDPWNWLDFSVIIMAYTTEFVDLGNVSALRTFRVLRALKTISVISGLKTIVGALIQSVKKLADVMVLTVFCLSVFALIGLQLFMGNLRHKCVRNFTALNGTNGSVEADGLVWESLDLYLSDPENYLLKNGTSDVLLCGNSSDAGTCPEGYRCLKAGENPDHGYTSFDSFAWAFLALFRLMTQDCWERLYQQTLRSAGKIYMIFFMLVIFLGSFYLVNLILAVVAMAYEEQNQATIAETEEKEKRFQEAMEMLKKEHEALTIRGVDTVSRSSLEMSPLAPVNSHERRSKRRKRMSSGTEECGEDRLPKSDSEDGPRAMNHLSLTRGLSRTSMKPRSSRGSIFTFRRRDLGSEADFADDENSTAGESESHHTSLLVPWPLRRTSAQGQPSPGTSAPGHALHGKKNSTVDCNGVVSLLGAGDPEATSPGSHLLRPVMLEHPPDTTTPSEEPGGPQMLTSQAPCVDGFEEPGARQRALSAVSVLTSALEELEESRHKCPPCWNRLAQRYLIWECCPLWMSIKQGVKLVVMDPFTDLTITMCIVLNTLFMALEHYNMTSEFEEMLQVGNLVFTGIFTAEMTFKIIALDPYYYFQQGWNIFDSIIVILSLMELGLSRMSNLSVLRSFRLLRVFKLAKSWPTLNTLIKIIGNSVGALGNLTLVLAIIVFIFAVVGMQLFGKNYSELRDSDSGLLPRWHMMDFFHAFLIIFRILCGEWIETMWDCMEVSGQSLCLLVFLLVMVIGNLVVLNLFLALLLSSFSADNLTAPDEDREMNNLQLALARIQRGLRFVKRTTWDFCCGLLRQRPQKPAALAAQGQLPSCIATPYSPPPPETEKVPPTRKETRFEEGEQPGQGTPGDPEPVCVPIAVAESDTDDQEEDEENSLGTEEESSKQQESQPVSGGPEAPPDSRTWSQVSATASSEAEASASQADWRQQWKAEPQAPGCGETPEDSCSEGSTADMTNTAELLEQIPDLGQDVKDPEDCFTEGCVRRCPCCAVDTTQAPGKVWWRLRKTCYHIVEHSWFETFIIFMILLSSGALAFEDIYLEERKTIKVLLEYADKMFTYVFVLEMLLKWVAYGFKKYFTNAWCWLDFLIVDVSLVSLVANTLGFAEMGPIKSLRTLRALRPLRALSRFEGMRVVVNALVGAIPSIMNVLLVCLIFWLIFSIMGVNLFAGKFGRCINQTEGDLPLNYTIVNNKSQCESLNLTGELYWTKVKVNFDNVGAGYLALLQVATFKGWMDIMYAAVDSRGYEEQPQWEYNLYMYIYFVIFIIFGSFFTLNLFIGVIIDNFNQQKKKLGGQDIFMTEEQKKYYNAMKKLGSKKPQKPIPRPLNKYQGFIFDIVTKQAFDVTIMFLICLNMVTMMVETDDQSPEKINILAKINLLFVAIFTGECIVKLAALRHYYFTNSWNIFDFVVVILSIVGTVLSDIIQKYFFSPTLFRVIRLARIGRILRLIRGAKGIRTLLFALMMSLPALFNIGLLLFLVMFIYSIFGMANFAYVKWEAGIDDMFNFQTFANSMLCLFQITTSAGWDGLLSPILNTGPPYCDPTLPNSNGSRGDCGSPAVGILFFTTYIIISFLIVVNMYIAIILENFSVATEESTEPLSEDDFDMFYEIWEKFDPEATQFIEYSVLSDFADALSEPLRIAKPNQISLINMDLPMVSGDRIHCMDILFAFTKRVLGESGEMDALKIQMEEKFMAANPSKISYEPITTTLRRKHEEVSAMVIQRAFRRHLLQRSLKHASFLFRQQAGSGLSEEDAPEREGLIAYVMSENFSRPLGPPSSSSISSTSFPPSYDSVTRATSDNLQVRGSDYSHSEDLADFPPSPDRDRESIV
Method: Experiments were performed on HEK293T cell lines with persistent/inducible expression of different human cardiac ion channel isoforms: hNav1.5 and hKv7.1 + minK (Anaxon AG, Bern, Switzerland), hCav1.2 (α1c + β2 + α2δ1) (B’SYS GmbH, Witterswil, Switzerland), and hKv11.1 (hERG) (Cytocentrics Bioscience GmbH, Rostock, Germany). The cell lines were grown in standard conditions (37 °C, 5% CO2, 90% humidity) in DMEM:F12 medium (D8900, Sigma-Aldrich, Burlington, MA, USA) buffered with 15 mM HEPES, containing 3.15 g/L D-glucose and 0.055 g/L sodium pyruvate, supplemented with 1.2 g/L sodium bicarbonate, 10% fetal bovine serum (F2442, Sigma-Aldrich, Burlington, MA, USA), 2 mM L-glutamine (G7513, Sigma-Aldrich, Burlington, MA, USA), 1% penicillin–streptomycin (P4333, Sigma-Aldrich, Burlington, MA, USA), and with specific antibiotics for selection of transfected cells or induction of gene expression according to manufacturers’ instructions. The medium was changed every 2–3 days and the cells were passed weekly upon detachment with trypsin–EDTA solution. All cell culture media and solutions were sterile filtered with 0.22 μm polyvinylidene fluoride filters. Ncyte® vCardiomyocytes (Ncardia, Leiden, The Netherlands) were cultured in 24-well plates precoated with bovine fibronectin, following manufacturer’s instructions. For the experiments, cardiomyocytes were detached as described previously and plated on ϕ 10 mm glass coverslips, like the other cell lines.
Manual whole-cell patch-clamp experiments were performed at room temperature, with equipment as described in previous studies. Pipettes were pulled from Clark borosilicate glass capillaries with inner filament (GC150F-10, Harvard Apparatus, Holliston, MA, USA) and had typical resistances of 2–3 MΩ. Recordings were performed with a WPC-100 resistive feedback amplifier (ESF electronic, Göttingen, Germany) or an Axopatch 200B amplifier (Axon Instruments—Molecular Devices, San Jose, CA, USA) connected to a Digidata 1322A interface driven by the pClamp 8.2 Clampex module (Axon Instruments, part of Molecular Devices, San Jose, CA, USA). For different types of ion channel, we applied specific voltage-clamp protocols as follows: • - For hERG, a standard two-step activation protocol was used: holding at −70 mV, a 100 ms step at −50 mV used as current reference for measurements, a 2 s depolarizing step at +40 mV, followed by a 2 s step at −50 mV to elicit the peak hERG current by rapid recovery from inactivation, repeated sweeps at 10 s intervals, plus specific protocols to assess the voltage dependence of activation and inactivation, as described in Thomet et al., 2021 [11]. • - For hKv7.1 + minK, a general two-step activation protocol was used: holding at −110 mV, a 250 ms step at −80 mV with a brief (50 ms) step at −90 mV at the middle to monitor seal quality, a 3000 ms depolarizing step at +60 mV, followed by a 1000 ms step at −50 mV; repeated sweeps at 20 s intervals. • - For hCav1.2, a pharmacology protocol with holding at −80 mV, a first 100 ms step at −50 mV and a second 200 ms step at 0 mV, repeated sweeps at 20 s intervals with drug application after 5 sweeps if current levels were steady, plus an activation–inactivation protocol with holding at −80 mV, 1000 ms depolarizing steps from −80 to +50 mV in 10 mV increments, followed by 250 ms steps at +10 mV and a return to −80 mV; 14 sweeps at 20 s intervals. • - For hNav1.5, multiple voltage protocols were used, including the following: • - A standard pharmacology protocol with holding at −90 mV, a 20 ms step at −110 mV for seal monitoring, a 40 ms activation step at −10 mV, and repeated sweeps at 1 s intervals. […]

## NC(=O)O[C@@H](Cn1ncnn1)c1ccccc1Cl [cenobamate]
[1]; read-out: IC50 on late (persistent) INa
  pIC50: 4.38
[1]; read-out: estimated IC50 on peak (transient) Na+ current
  pIC50: < 3.30
[2]; HEK-293T, cenobamate 1 µM, end of step at 0 mV, read-out: % INa inhibition (late), mean (Table S3)
  inhibition at 1 µM: 5.58%
[2]; HEK-293T, cenobamate 10 µM, read-out: % INa inhibition (late), mean (Table S3)
  inhibition at 10 µM: 25.4%
[2]; HEK-293T, cenobamate 10 µM, read-out: % INa inhibition (late), single experiments (Table S3)
  inhibition at 10 µM: 25.1%
[2]; HEK-293T, cenobamate 40 µM, read-out: % INa inhibition (late), mean (Table S3)
  inhibition at 40 µM: 49.3%
[2]; HEK-293T, cenobamate 40 µM, read-out: % INa inhibition (late), single experiments (Table S3)
  inhibition at 40 µM: 47.7%
[2]; HEK-293T, cenobamate 100 µM, read-out: % INa inhibition (late), mean (Table S3)
  inhibition at 100 µM: 79.5%
[2]; HEK-293T, cenobamate 100 µM, read-out: % INa inhibition (late), single experiments (Table S3)
  inhibition at 100 µM: 80.1%
[2]; HEK-293T, cenobamate 200 µM, read-out: % INa inhibition (late), mean (Table S3)
  inhibition at 200 µM: 94.4%
[2]; HEK-293T, cenobamate 200 µM, read-out: % INa inhibition (late), single experiments (Table S3)
  inhibition at 200 µM: 96.7%
[2]; INaLIC50 (model script), value entered in C++ script
  pIC50: 4.33
[2]; apparent IC50 for late INa inhibition, ATX-II 20 nM or 100 nM, nH = 1
  pIC50: 4.33
[2]; cenobamate 1 µM
  % INa inhibition (late), single experiments (Table S3): 9.80% and 4.35% and 2.59%
[2]; cenobamate 10 µM
  % INa inhibition (late), single experiments (Table S3): 27.99% and 16.75% and 31.85%
[2]; cenobamate 40 µM
  % INa inhibition (late), single experiments (Table S3): 42.71% and 49.53% and 57.45%
[2]; cenobamate 100 µM
  % INa inhibition (late), single experiments (Table S3): 91.98% and 72.79% and 79.43% and 73.06%
[2]; cenobamate 200 µM
  % INa inhibition (late), single experiments (Table S3): 94.40% and 94.64% and 86.94% and 99.56%
